Data from patent US8466193B2, “Selective inhibitors of histone deacetylase” (Pharmacyclics, Inc., priority 2008, dated 2013).

Tests used:
[1] = molecular target: HDAC1 (Homo sapiens, UniProt Q13547); assay: Histone deacetylase activity, continuous trypsin-coupled assay; assay type: biochemical; details: 15 minutes preincubation; substrate acetyl-Gly-Ala-(N-acetyl-Lys)-AMC
[2] = molecular target: T1, HDAC6 (Homo sapiens, UniProt Q9UBN7); assay: as above; assay type: biochemical; details: 15 minutes preincubation; substrate acetyl-Gly-Ala-(N-acetyl-Lys)-AMC
T1 sequence (Q9UBN7 1-1215): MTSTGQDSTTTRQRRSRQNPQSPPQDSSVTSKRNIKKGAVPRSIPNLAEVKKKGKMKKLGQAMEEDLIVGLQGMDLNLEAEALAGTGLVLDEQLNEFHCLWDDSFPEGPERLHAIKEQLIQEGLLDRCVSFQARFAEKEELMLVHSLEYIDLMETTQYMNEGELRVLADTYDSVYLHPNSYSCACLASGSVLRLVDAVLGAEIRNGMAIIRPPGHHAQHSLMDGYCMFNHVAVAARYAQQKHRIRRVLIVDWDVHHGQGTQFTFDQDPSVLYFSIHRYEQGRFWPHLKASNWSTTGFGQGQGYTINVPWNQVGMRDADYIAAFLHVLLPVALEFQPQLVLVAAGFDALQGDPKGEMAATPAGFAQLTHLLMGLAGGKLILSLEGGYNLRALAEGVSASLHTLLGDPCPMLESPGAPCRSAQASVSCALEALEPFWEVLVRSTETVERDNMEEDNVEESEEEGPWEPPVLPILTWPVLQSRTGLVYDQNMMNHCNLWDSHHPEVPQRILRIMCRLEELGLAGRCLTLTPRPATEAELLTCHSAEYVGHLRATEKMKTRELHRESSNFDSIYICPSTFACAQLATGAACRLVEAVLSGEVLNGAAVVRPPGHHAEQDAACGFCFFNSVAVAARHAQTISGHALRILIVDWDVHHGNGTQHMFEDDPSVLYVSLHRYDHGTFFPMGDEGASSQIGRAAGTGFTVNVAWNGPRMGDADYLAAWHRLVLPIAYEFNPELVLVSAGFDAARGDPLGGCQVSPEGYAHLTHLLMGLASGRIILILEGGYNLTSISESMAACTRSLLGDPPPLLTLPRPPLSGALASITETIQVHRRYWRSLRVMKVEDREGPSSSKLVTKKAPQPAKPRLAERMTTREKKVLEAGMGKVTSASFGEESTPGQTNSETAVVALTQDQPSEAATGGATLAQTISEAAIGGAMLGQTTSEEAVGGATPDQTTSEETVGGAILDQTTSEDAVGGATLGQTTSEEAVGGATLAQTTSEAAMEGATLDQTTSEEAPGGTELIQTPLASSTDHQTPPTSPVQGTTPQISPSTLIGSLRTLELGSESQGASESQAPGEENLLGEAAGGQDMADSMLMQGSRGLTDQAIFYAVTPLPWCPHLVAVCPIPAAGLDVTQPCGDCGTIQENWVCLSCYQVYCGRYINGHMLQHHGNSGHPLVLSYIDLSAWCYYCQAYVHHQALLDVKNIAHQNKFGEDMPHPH

[3] = tested on: Jurkat cells; assay: Cell proliferation assay, growth inhibition by Alamar Blue; assay type: cell-based; details: Homo sapiens, 72 h, Jurkat cells treated with compound for 3 days
Protocol: Cell lines were obtained from DSMZ (Braunschweig, Germany) or ATCC (Manassas, Va.). Cells were grown in RPMI 1640 with 10% fetal bovine serum in a 5% CO2/air incubator at 37° C. Thapsigargin and BAPTA-AM were from Calbiochem (San Diego, Calif.). 3-((dimethylamino)methyl)-N-(2-(4-(hydroxycarbamoyl)phenoxy)ethyl)benzofuran-2-carboxamide is a broad-spectrum HDAC inhibitor which was synthesized as previously described. Other analogs with varying degrees of specificity towards the HDAC isoforms were synthesized as described herein.
Tumor cell lines and human umbilical vein endothelial cells (HUVEC) were cultured for at least two doubling times, and growth was monitored at the end of compound exposure using an Alamar Blue™ (Biosource, Camarillo, Calif.) fluorometric cell proliferation assay as recommended by the manufacturer. Compounds were assayed in triplicate wells in 96-well plates. The concentration required to inhibit cell growth by 50% (GI50) and 95% confidence intervals were estimated from nonlinear regression using a 4-parameter logistic equation. The effect of HDAC8 selective inhibitor compounds on cell proliferation in Jurkat cells was measured. Apoptosis was measured by Annexin-V flow cytommetry. Growth inhibition was measured by Alamar Blue assay. Cells were treated with compound for 3 days.

HDAC1, sequence (Q13547 whole entry, species assumed): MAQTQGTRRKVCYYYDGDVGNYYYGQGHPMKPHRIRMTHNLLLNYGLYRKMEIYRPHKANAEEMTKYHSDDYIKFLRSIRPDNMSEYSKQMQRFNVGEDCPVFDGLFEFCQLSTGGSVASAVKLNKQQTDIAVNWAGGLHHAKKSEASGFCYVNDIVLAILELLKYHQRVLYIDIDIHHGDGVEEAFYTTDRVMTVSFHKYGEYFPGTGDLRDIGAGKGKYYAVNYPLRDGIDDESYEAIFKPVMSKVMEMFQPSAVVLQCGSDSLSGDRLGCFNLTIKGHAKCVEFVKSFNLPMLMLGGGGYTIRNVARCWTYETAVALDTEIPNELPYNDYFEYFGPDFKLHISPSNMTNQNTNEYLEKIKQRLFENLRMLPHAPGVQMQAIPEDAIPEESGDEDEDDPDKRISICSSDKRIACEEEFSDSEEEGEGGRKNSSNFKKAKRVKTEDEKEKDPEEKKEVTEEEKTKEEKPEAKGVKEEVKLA

IC50 [1]: > 10 µM
IC50 [2]: > 10 µM
GI50 [3]: 2.8 µM
Structure (SMILES): O=C(NO)c1ccc2ccn(CCOc3ccccc3)c2c1 [Compound 316, N-hydroxy-1-(2-phenoxyethyl)-1H-indole-6-carboxamide]
